The term IC50 denotes the concentration that inhibits the measured activity by half. High values mean lower potency, low ones higher potency.

These results are taken from patent publication US20050239826A1 (Boehringer Ingelheim International GmbH, priority 2004, published 2005).

In one experiment the target is T1, hMCH-1R (Homo sapiens, UniProt Q99705).
T1 construct: expressed in transfected cells
The experiment can be described thus: MCH-1 receptor binding test (125I-MCH binding to membranes of hMCH-1R transfected CHO/Galpha16 cells). Particulars: 100 pM 125I-MCH. The method, then: After the incubation the reaction is filtered using a cell harvester through 0.5% PEI treated fibreglass filters (GF/B, Unifilter Packard). The membrane-bound radioactivity retained on the filter is then determined after the addition of scintillator substance (Packard Microscint 20) in a measuring device (TopCount of Packard). […] The analysis of the concentration binding curve is carried out on the assumption of one receptor binding site.

The conditions of experiment [1]: rats, intraventricular administration, compared with control animals; cited from earlier work.
For experiment [2] the following is noted: rats; cited from earlier work.
The conditions of experiment [3]: long term trials, treated animals; cited from earlier work.

T1 sequence (Q99705 whole entry): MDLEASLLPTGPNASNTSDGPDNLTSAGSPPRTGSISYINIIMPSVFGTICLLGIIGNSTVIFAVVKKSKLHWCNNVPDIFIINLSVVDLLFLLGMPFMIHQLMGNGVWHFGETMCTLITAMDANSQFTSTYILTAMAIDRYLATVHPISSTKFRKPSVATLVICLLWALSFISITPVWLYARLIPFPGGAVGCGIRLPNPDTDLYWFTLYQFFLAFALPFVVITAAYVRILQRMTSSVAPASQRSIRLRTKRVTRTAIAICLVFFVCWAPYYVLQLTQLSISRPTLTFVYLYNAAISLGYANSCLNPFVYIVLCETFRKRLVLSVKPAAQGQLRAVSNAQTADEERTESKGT

Take `Cc1cc(C#Cc2ccc(-c3ccc(Cl)cc3)cn2)ccc1OCCN1CC[C@H](O)[C@](C)(O)C1` [Example 1.5, (3R,4S)-1-(2-{4-[5-(4-chloro-phenyl)-pyridin-2-ylethynyl]-2-methyl-phenoxy}-ethyl)-3-methyl-piperidine-3,4-diol]: on hMCH-1R, the IC50 was 10.9 nM.

Regarding `OCCCN(CCOc1ccc(C#Cc2ccc(-c3ccc(Cl)cc3)cn2)cc1)CC1(O)CC1` [Example 2.20, 1-{[(2-{4-[5-(4-chloro-phenyl)-pyridin-2-ylethynyl]-phenoxy}-ethyl)-(3-hydroxy-propyl)-amino]-methyl}-cyclopropanol], the IC50 on hMCH-1R is 13.8 nM.

Regarding `CSCC[C@@H]1NC(=O)[C@@H](NC(=O)[C@H](CCCNC(=N)N)NC(=O)[C@H](CC(C)C)NC(=O)[C@H](CCSC)NC(=O)[C@H](CC(=O)O)NC(=O)[C@H](Cc2ccccc2)NC(=O)[C@@H](N)CC(=O)O)CSSC[C@@H](C(=O)N[C@@H](Cc2c[nH]c3ccccc23)C(=O)N[C@@H](CCC(N)=O)C(=O)N[C@H](C(=O)O)C(C)C)NC(=O)[C@@H]2CCCN2C(=O)[C@H](CCCNC(=N)N)NC(=O)[C@H](Cc2ccc(O)cc2)NC(=O)[C@H](C(C)C)NC(=O)[C@H](CCCNC(=N)N)NC(=O)CNC(=O)[C@H](CC(C)C)NC1=O` [MCH, Melanin-concentrating hormone], in experiment [1], the food intake entry is “food intake was increased”.

Regarding `COCC1=C(C(=O)OC)[C@H](c2ccc(F)c(F)c2)N(C(=O)NCCCN2CCC(c3cccc(NC(C)=O)c3)CC2)C(=O)N1` [SNAP-7941], the “effects in behavioural experiments” value in experiment [2] was “anxiolytic and antidepressant effects”. The body weight result in experiment [3] is listed as “lose significant amounts of weight”.
